Test results reported in paper PMC10818312, “Ocular and Plasma Pharmacokinetics of Enavogliflozin Ophthalmic Solution in Preclinical Species” (Pharmaceuticals, 2024).

Columns and labels:
[1] = Plasma PK after single ocular administration in rats; format: in vivo; settings: male, Brown Norway, topical or ocular, 25 ug, rat plasma, single ocular 25 μg
Experimental: (§1) We used 7-week-old male Brown Norway rats (Central Lab. Animal Inc., Seoul, Republic of Korea) weighing 140–180 g. The rats were acclimated for a minimum of 7 days. For the evaluation of plasma PKs after ocular administration, a single dose of 5 μL of DWRX2008 0.5% (25 μg of enavogliflozin) was topically applied on the left eye. One-year-old male Ridglan beagle dogs (JOHN Bio Co., Nantong, China) weightng 8–10 kg were chosen. The beagle dogs experienced a withdrawal period of over one month. For the evaluation of plasma PKs after ocular administration, a single dose of 20 μL of DWRX2008 0.5% (100 μg of enavogliflozin) was ocularly administered on the left eyes. In rats and beagle dogs, DWRX2008 was administered to the left eye for evaluation of safety and systemic absorption. Male New Zealand White rabbits (Samtako Biokorea, Osan, Republic of Korea) weighing 2.0–2.5 kg were used in PK studies after eye drop instillations. The rabbits were acclimated for 7 days. […]
(§2) A total of three rats were sampled 10 times at 0 (pre-dose), 0.08, 0.25, 0.5, 1, 2, 4, 8, 12 and 24 h post-dose. […] After centrifugation at 14,000 rpm for 5 min, 3 μL of sample was analyzed by LC-MS [24]. […] Finally, 3 μL of sample was analyzed by LC-MS [24]. […] Finally, 3 μL of sample was analyzed by LC-MS [24]. […]

[2] = Plasma PK after single ocular administration in rabbits; format: in vivo; settings: male, New Zealand White, topical or ocular, 400 ug, rabbit plasma, single ocular 400 μg (both eye)
Experimental: as §1, §2

[3] = Plasma and retinal concentration after single oral administration in rabbits; format: in vivo, male New Zealand White rabbits
[4] = Plasma PK after single ocular administration in beagle dogs; format: in vivo; settings: male, Ridglan beagle, topical or ocular, 100 ug, beagle dog plasma, single ocular 100 μg
Experimental: as §1, §2

[5] = Retina/plasma drug concentration ratio in rats; format: in vivo; settings: mean (range)
[6] = Melanin binding capability; format: in vitro ADME
[7] = male, New Zealand White, rabbit, in vivo
Experimental: (§3) We used 9-month-old male rabbits (Envigo, Denver, PA, USA) weighing 3.1–3.7 kg in the PK studies involving a single topical ocular administration of [^14C] enavogliflozin.
(§4) The appropriate quantity of radiolabeled and non-radiolabeled test formulation (if required) was combined with the vehicle to meet the dose level (~77 μCi/eye). […] A single volumetric dose of 30 μL was administered to each eye (600 μg/eye, 1200 μg/head).
(§5) Two animals were euthanized by Euthasol® administration into the marginal ear vein at each predetermined time point (0.5, 1, 2, 4, 8, 24, and 48 h) post-instillation. Subsequently, their heads were frozen in a hexane/dry-ice bath and embedded in a 5% carboxymethylcellulose matrix. The embedded heads were sectioned at 30 μm thickness with less than 20% variation.
(§6) The primary PK parameters for concentrations of enavogliflozin were explored using a noncompartmental method of Phoenix WinNonlin 8.3 (Certara, L.P., Princeton, NJ, USA). The Cmax and Tmax were directly accepted from observed data. The AUC0–t was calculated using the linear trapezoidal method based on the mean radioactivity concentration of both eyes for ocular PKs in rabbits and the linear-up/log-down trapezoidal method for plasma PKs in rats, beagle dogs, and rabbits.

[8] = no reference given; cited from earlier work
hSGLT2 = settings: no reference given; read-out: IC50 against hSGLT2; cited from earlier work
hERG = system: hERG; set-up: method as in earlier work; settings: ref Daewoong Therapeutics, DWRX2008-IB-01 Investigator’s brochure, data on file; cited from earlier work
[9] = Ocular distribution and blood exposure of radioactivity by autoradiography after single ocular [14C] enavogliflozin (terminal sampling); settings: single ocular 600 μg/eye, rabbits
Experimental: as §3, §4, §5, §6

[10] = left eye, median [min, max], n = 3

OC[C@H]1O[C@@H](c2cc(Cc3ccc(C4CC4)cc3)c(Cl)c3c2CCO3)[C@H](O)[C@@H](O)[C@@H]1O [enavogliflozin]
Tmax [1, 10]: 4 h
half-life ([1]; mean ± SD (% CV)): 324 min
half-life ([2]; mean ± SD (% CV)): 216 min
Tmax ([2]; median [min, max], n = 6): 30 min
Tmax ([3]; male, New Zealand White, 400 ug, rabbit plasma, single oral 400 μg, median [min, max], n = 6): 48 min
retinal enavogliflozin concentration ([3]; rabbits, oral administration, same dose (400 μg)): below the lower limit of quantification
Tmax [4, 10]: 1 h
half-life ([4]; mean ± SD (% CV)): 636 min
mean retina/plasma (R/P) drug concentration ratio ([5]; 1 h after administration): 3.3 (range: 0.6–6.6)
mean retina/plasma (R/P) drug concentration ratio ([5]; 3 h after administration): 1.3 (range: 0.2–2.2)
mean retina/plasma (R/P) drug concentration ratio ([5]; 6 h after administration): 2.6 (range: 1.4–3.3)
melanin binding capability [6]: approximately 33%
time until which retinal concentration remained above the IC50 of SGLT2 [7]: 24 h
partition coefficient [Log P] [8]: 2.13
IC50 (hSGLT2): 0.43 nM
IC50 (hERG): 44.9 µM

[^14C] enavogliflozin
AUC0–t in whole blood as % of corresponding value in the plasma ([9]; radioactivity): 64.0%
Cmax in whole blood as % of corresponding value in the plasma ([9]; radioactivity): 73.4%
Radioactivity in the optic nerve [9]: barely detectable
